Common to all, as to format: biochemical
Assay [1] has as its system cell-free protein synthetic system containing a wheat germ extract. Put plainly: Amount of GFP synthesized by wheat germ cell-free protein synthesis (GFP fluorescence intensity).
Another assay relates to glutamine synthetase. Put plainly: Metabolism of glutamic acid to glutamine in wheat germ cell-free system, 1H-15N HSQC of synthesized yeast ubiquitin. The protocol: (§1) The mixed solution was allowed to react for 2 days with a dialysis buffer solution, wherein only one type of amino acid had been labeled with ^15N (manufactured by Cambridge Isotope Laboratories) and 19 types of remaining amino acids were ordinary amino acids. Thereafter, the dialysis buffer solution was exchanged with a fresh buffer solution, and the protein synthesis reaction was carried out further for 2 days. Thereafter, 1 ml of the reaction solution was concentrated to 250 μl using a Centricon-3 ultrafiltration concentration device manufactured by Millipore. […] The concentrated solution was passed through a Micro Spin G-25 gel filtration column manufactured by Amersham that had previously been equilibrated with a buffer solution used for NMR measurement (50 mM sodium phosphate, pH 6.5, 100 mM NaCl), so that the buffer solution was exchanged with a buffer solution used for the measurement, thereby preparing an NMR measurement sample.
(§2) For the NMR measurement, an Avance-500 spectrometer manufactured by Bruker was used. In order to maintain the stability of a magnetic field, 10% D2O used for NMR lock was added to the measurement sample, and thereafter, ^1H-^15N HSQC measurement was carried out. The measurement temperature was set at 30° C.
(§3) Subsequently, the concentration of aminooxyacetic acid in a translation solution and an external dialysis solution was set at 1 mM. The following 3 types of substrate amino acids were prepared: (1) only alanine was labeled with ^15N and 19 types of remaining amino acids were ordinary amino acids; (2) only aspartic acid was labeled with ^15N and 19 types of remaining amino acids were ordinary amino acids; and (3) only glutamic acid was labeled with ^15N and 19 types of remaining amino acids were ordinary amino acids. Using these substrate amino acids, yeast ubiquitins were synthesized by the same method as described in Example 1, and the ^1H-^15N HSQC was measured. […] Moreover, the aforementioned experiment was carried out under conditions whereby the concentration of aminooxyacetic acid was set at 0.1 μM, 1 μM, 10 μM, 100 μM, and 1 mM.
(§4) Subsequently, the concentration of aminooxyacetic acid was set at 1 mM and the concentration of L-methionine sulfoximine was set at 0.1 mM in a translation solution and an external dialysis solution. Substrate amino acid was prepared such that only glutamic acid was labeled with ^15N and 19 types of remaining amino acids were ordinary amino acids. Using such substrate amino acid, yeast ubiquitin was synthesized by the same method as described in examples, and the ^1H-^15N HSQC was measured. […] Moreover, the aforementioned experiment was carried out under conditions whereby the concentration of L-methionine sulfoximine was set at 0.1 μM, 1 μM, 10 μM, and 100 μM.

A further assay deals with transaminase. Put plainly: Amino acid metabolism by transaminase in wheat germ cell-free system, 1H-15N HSQC of synthesized yeast ubiquitin. The settings on record: for metabolism of glutamic acid to aspartic acid: only glutamic acid labeled with 15N. How it is done: as §1, §2, §3, §4

Each structure is given as a SMILES string.

On to `CS(=N)(=O)CC[C@H](N)C(=O)O` (stereo partly drawn) [L-methionine sulfoximine], for which the “amount of GFP synthesized” value in assay [1] (L-methionine sulfoximine 20 mM or less in external dialysis solution and reaction solution, FIG. 7) is reported as “not reduced”. In addition, the “metabolism of glutamic acid to glutamine” value in the assay with glutamine synthetase (0.1 mM L-methionine sulfoximine plus 1 mM aminooxyacetic acid, only glutamic acid labeled with 15N, FIG. 8) is given as “suppressed”. Also, the “inhibition of the metabolism” value with glutamine synthetase (L-methionine sulfoximine 10 μM) is “two thirds”; in the assay with glutamine synthetase (L-methionine sulfoximine 100 μM or more) it was “completely inhibited”.
Regarding `NOCC(=O)O` [aminooxyacetic acid], the “amount of GFP synthesized” value in assay [1] (aminooxyacetic acid 4 mM or less in external dialysis solution and reaction solution, FIG. 4) is on record as “not reduced”. Further, the “synthesized amount of GFP maintained” value in assay [1] (aminooxyacetic acid 10 mM, FIG. 4) is listed as “approximately 70%”. Further, the “metabolism of glutamic acid to aspartic acid” value is on record as “suppressed” in the assay with transaminase (1 mM aminooxyacetic acid plus 0.1 mM L-methionine sulfoximine, FIG. 8) and “suppressed” in the assay on transaminase (1 mM aminooxyacetic acid, FIG. 6). Moreover, the “HSQC signals observed (selective labeling)” value in the assay on transaminase (1 mM aminooxyacetic acid, only alanine labeled with 15N, FIG. 5A) is listed as “only signal derived from alanine or aspartic acid was observed”; with transaminase (1 mM aminooxyacetic acid, only aspartic acid labeled with 15N, FIG. 5B), “only signal derived from alanine or aspartic acid was observed”. Besides, the “inhibition of the metabolism” value with transaminase (aminooxyacetic acid 10 μM) is reported as “two thirds”; in the assay with transaminase (aminooxyacetic acid 100 μM or more), “completely inhibited”. Moreover, the “activity of metabolizing glutamic acid to glutamine” value in the assay on glutamine synthetase (1 mM aminooxyacetic acid, only glutamic acid labeled with 15N, FIG. 6) is reported as “has still remained”.

The record behind these values is patent US20060216791A1, “Method for synthesizing amino-acid-selectively labeled protein” (Mitsubishi Chemical Corporation, priority 2003, published 2006).
